Results from patent US20090233913A1, “OPTICAL ISOMERS OF DIHYDRO-2,3-BENZODIAZEPINES AND THEIR STEREOSELECTIVE SYNTHESIS” (priority 2005, published 2009).

Experiments:
[1] = system: AMPA receptor; assay: Spreading depression (SD) test in the chicken retina, in vitro; type: cell-based; conditions: antagonism of SD latency generated by 5 μM S-AMPA, isolated chicken retina, 30-minute incubation, room temperature; average ± deviation of the average
Protocol: The test was carried out according to method of Sheardown (1993).
Isolated eye-cups of 5-7 days old chickens (Shaver red-brow) were used. The sexes of the chickens were unidentified. Eyes of the animals were enucleated in narcosis caused by etherization, then the back sides of the eyes were cut and put in nutrient solution.
The composition of the medium is 100 mM NaCl, 3 mM KCl, 1 mM MgSO4, 1 mM CaCl2, 30 mM NaHCO3, 1 mM NaH2PO4 10 mM D-glukose, pH=7.3.
The spreading depression (SD) latency generated by 5 μM S-AMPA is determined at room temperature followed by a 90-minute stabilisation period. This value was considered as control value. Then the latency caused by AMPA was measured following a 30-minute incubation period in the presence of the test compound, then followed by further 60 minutes washing the recursion of the latency time to the control value was checked.
The elongation of the control latency with 30 sec corresponds to 100% antagonism. • Literature: Sheardown, M. J.: The triggering of spreading depression in the chicken retina: a pharmacological study. Brain Research 1993, 607: 189-194.

[2] = system: female Wistar rats; assay: Toxicity test in rats: histological atrophy of thymus and bone-marrow after seven-day p.o. treatment; type: in vivo, rat; conditions: for thymus cortex atrophy (scores): female Wistar rats, 30 mg/kg p.o. once daily for seven days, score 0 (no change) to 4 (severe), average ± deviation of the average; for bone-marrow atrophy (scores): female, Wistar, po, 30 mg/kg, 7 days; for bone-marrow atrophy (scores) / effect on the hystological pictures of the thymus and bone-marrow (in words): rat, in vivo
Protocol: The examination was carried out using female Wistar rats. One day before the treatment the animals were assigned to randomised groups based on their weight (10 animals/group). Each active ingredient was suspended in a solution of 0.4% hydroxypropylmethylcellulose (Methocell F4 M, Dow Chemical Company, USA) and administered once daily for seven days by gastric-canule. The daily doses were 30 mg/kg, the animals of the control group were treated with the solvent. At the end of the experiments the animals were sacrificed by incising of the arteries of thigh in narcosis caused by ether.
After the thymus-ectomy thymi were fixed in a solution of formaline buffered with phosphate, then embedded in paraffin, pigmented with hemalaun-eosin.
Bone-marrow film preparations were made from the femur of the animals and pigmented according to Grimsa method (Sheenan D. C.-Hrapchak B. B.: Theory and practice of histotechnology (2nd ed.) Mosby Company, St. Louis, USA 1980).
The histological athrophy was scored as follows: 0—there is no change, 1—change appears, 2—slight change, 3—middle severe change, marked change, 4—severe, obvious, wide change. The rating was accomplished blind without any information about the treatment.
Groups were compared by KRUSKAL WALLIS ANOVA test (Ranks and Median). In case of significant deviation (p<0.05) WALD-WOLFOWITZ test was used for comparison.

[3] = system: male Wistar rats; assay: Measurement of plasma corticosterone concentration in the rat (radio-immunoassay); type: in vivo; conditions: treatment per os, 15 mg/kg
Protocol: Examinations were carried out by using male wistar rats weighing 250-300 g. The animals were kept in an air-conditioned room, 12 hours artificial daylight was followed by 12 hours darkness. For four days prior to the experiments the animals got 0.5 ml water daily by a gastric-canule. The weight of the animals was measured at the evening before the experiments, then the animals were placed in separate cages.
Experiments were accomplished in the morning between 9 and 12 hours.
Before the treatment the animals were randomized to groups (7 animals/group)
The tested compounds were administered in a 15 mg/body weight kg dose, in 5 ml/kg solvent volume, using gastric-canule. The control animals were treated with solvent. The solvent composition contained 0.2 ml of 2.5 M HCl and 19.8 ml of distilled water.
After one hour of the treatment the animals were decapitated and about 2 ml of blood were collected in an ice-cold test tube containing 100 μl of 2% (WN) K-EDTA.
For the determination of corticosterone concentration, a corticosterone-3-CMO-BSA anti-body prepared in rabbit was used in a dilution of 1:40000. The antibody cross-reaction with desoxycorticosteron was 1.5%; with progesterone it was 2.3%. […]
The corticosterone concentration was measured from 10 μl plasma without extraction. […] The radioactivity was measured with LKB Clinigamma apparatus. […]

`CC(=O)N1N=C(c2ccc(N)c(C)c2)c2cc3c(cc2C[C@H]1C)OCO3` [Example 4, (R)-(−)-7-acetyl-5-(4-amino-3-methylphenyl)-8-methyl-8,9-dihydro-7H-1,3-dioxolo[4,5-h][2,3] benzodiazepine] was tested, and the EC50 [1] was 1800 ± 100 nM, the “thymus cortex atrophy (scores)” value [2] was 0.30 ± 0.21 scores and the “bone-marrow atrophy (scores)” value [2] was 0.40 ± 0.27 scores. The “effect on the hystological pictures of the thymus and bone-marrow (in words)” value [2] was “only in a minimal degree”.
`CC(=O)N1N=C(c2ccc(N)c(C)c2)c2cc3c(cc2C[C@@H]1C)OCO3` [Example 6, (S)-(+)-7-Acetyl-5-(4-amino-3-methylphenyl)-8-methyl-8,9-dihydro-7H-1,3-dioxolo[4,5-h][2,3] benzodiazepine] was tested, and the “thymus cortex atrophy (scores)” value [2] was 2.9 ± 0.43 scores, the “bone-marrow atrophy (scores)” value [2] was 2.1 ± 0.31 scores and the “effect on the hystological pictures of the thymus and bone-marrow (in words)” value [2] was “caused significant hystological atrophy in the thymus and the bone-marrow”.
With `CC(=O)N1N=C(c2ccc(N)c(C)c2)c2cc(Cl)ccc2C[C@H]1C` [Example 15, (R)-(−)-3-acetyl-1-(4-amino-3-methylphenyl)-8-chloro-4-methyl-4,5-dihydro-3H-2,3-benzodiazepine] the EC50 [1] was 3900 ± 200 nM and the “effect on the plasma corticosterone concentration (in words)” value [3] was “did not affect the plasma corticosterone concentration”.
For `CC(=O)N1N=C(c2ccc(N)c(C)c2)c2cc(Cl)ccc2C[C@@H]1C` [Example 16, (S)-(+)-3-acetyl-1-(4-amino-3-methylphenyl)-8-chloro-4-methyl-4,5-dihydro-3H-2,3-benzodiazepine], the “effect on the plasma corticosterone concentration (in words)” value [3] was “elevated the plasma corticosterone concentration”.
